Experimental data reported in article PMC11195995, “A homogeneous time-resolved fluorescence screen to identify SIRT2 deacetylase and defatty-acylase inhibitors” (PLOS ONE, 2024).
Entries after “also recorded” stand apart in the source; their conditions may differ. Like-named read-outs stand apart in the source and are kept apart here.

Columns and labels:
[1] = test system: acetylated alpha-tubulin in A549 cells; experiment: Immunofluorescence staining of acetylated alpha-tubulin in A549 cells; assay type: cell-based, human; conditions: 25 μM, 6 hours
Experimental: 100,000 A549 or A549 SIRT2-KO cells were seeded on a coverslip that was placed in the well of 6-well plate, and the cells were grown overnight in full DMEM. […] The cells were then washed three times with PBS, fixed with 4% paraformaldehyde for 10 min, then washed again three times with PBS. Cells were incubated with 0.2% Triton X-100 for 15 minutes on a shaker followed by three more PBS washes. The cells were then blocked with 2% BSA in PBS for 1 hour at room temperature. […] Slides were imaged using a Keyence BZ-X710 fluorescence microscope with the following filter settings: DAPI, excitation/emission was 300–400 nm/438-484 nm; Alexa Fluor 488, excitation/emission was 448 nm/500-550 nm. All images were obtained under identical conditions, and fluorescence intensities were quantified using Fiji/ImageJ without any manipulation to the images. The fluorescence intensity from at least six cells per coverslip were randomly selected and measured targeting the cytosol (for measuring acetylated alpha-tubulin levels via Alexa Fluor 488) or the nucleus (for measuring nuclear DNA staining via DAPI). Relative fluorescence intensity was calculated as the ratio of Alexa Fluor 488/DAPI intensities. […]

[2] = test system: A549 cells; experiment: Cell viability MTT assay; assay type: cell-based, human; conditions: 72 hours treatment, concentrations shown in Fig 4F and 4G
Experimental: 5,000 A549 cells were seeded in a 96-well plate in full DMEM. The total volume in each well was 150 μl, and the DMSO concentration was 0.7%. After this treatment period, 10 μl of MTT reagent was added to each well, then the cells were cultured for 4 hour before adding 100 μl of crystal dissolving solution for another 16 hour incubation (Cayman Chemical, catalog #10009365). The absorbance in each well was measured at 570 nm and was used to determine the cell viability by comparing the absorbance of drug treated cells to control (DMSO treated) cells.

[3] = test system: acetylated alpha-tubulin in A549 SIRT2-KO cells; experiment: Immunofluorescence staining of acetylated alpha-tubulin in A549 SIRT2-KO cells; assay type: cell-based, human; conditions: 25 μM, 6 hours
[4] = molecular target: T1, SIRT2 (Homo sapiens, UniProt Q8IXJ6); experiment: SIRT2 deacetylase activity assay (MALDI-MS, acetyl-H4K16 peptide); assay type: biochemical; conditions: 4 μM acetyl-H4K16, 1 mM NAD+, 37°C; absolute IC50; "no effect" = 200 μM compound did not significantly affect SIRT2 activity
T1 sequence (Q8IXJ6 34-356): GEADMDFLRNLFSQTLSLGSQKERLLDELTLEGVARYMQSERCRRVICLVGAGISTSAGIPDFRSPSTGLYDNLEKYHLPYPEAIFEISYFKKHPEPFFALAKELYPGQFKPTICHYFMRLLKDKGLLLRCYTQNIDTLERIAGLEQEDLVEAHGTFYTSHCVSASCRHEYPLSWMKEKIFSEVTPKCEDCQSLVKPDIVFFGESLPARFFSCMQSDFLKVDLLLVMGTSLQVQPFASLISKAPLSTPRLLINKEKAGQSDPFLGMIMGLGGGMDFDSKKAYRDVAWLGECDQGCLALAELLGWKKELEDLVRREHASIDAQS
Experimental: (§1) The enzymatic activity of SIRT2 was measured using a MALDI-MS—based protocol reported previously. Reactions were performed at 37°C for 2.5 min in PBS containing 1 mM DTT and 1 mM of NAD^+. Acylated H4K16 peptides were used as the substrates at the following concentrations: acetyl-H4K16, 4 μM; decanoyl-H4K16, 0.2 μM; dodecanoyl-H4K16, 0.5 μM; myristoyl-H4K16, 0.5 μM. These concentrations correspond to the enzyme’s Km for each substrate under saturating NAD^+ conditions. The enzyme concentration in each reaction was chosen such that 20% or less of the substrate was processed by the enzyme when the reactions were quenched. In dose-response assays showing a reduction in SIRT2 activity by increasing amounts of ligand, the data was fit with standard sigmoidal dose-response curves as we previously described. We report absolute IC50 values from the curves which reflect ligand concentrations that reduce the activity of the enzyme by 50% compared to control (no ligand) samples. Assays measuring the effects of ligand on SIRT1 deacetylase and SIRT6 demyristoylase activities were performed similarly, as previously described.

[5] = molecular target: T1, SIRT2; experiment: SIRT2 demyristoylase activity assay (MALDI-MS, myristoyl-H4K16 peptide); assay type: biochemical; conditions: for Demyristoylase IC50: 0.5 μM myristoyl-H4K16, 1 mM NAD+, 37°C, absolute IC50, "no effect" = 200 μM compound did not significantly affect SIRT2 activity
Experimental: as §1

[6] = molecular target: T2, human SIRT2 catalytic domain (6xHis-SUMO-SIRT2) (Homo sapiens, UniProt Q8IXJ6); experiment: biochemical
T2 sequence (Q8IXJ6 34-356): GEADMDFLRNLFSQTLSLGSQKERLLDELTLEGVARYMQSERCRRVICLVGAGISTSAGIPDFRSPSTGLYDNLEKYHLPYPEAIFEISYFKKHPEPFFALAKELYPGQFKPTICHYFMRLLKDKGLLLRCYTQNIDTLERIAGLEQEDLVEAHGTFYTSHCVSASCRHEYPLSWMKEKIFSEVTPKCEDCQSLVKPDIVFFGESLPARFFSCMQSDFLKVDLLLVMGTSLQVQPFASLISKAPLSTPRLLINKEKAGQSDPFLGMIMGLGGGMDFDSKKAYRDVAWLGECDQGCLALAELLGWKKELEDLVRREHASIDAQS

[7] = molecular target: T1, SIRT2; conditions: cited from earlier work
[8] = molecular target: T2, human SIRT2 catalytic domain (6xHis-SUMO-SIRT2); experiment: SIRT2—myristoyl-peptide HTRF binding assay (displacement of FAM-myristoyl-H4K16 peptide); conditions: at the highest ligand concentrations
[9] = molecular target: T1, SIRT2; conditions: read-out: IC50 for SIRT2 demyristoylase activity; cited from earlier work
[10] = molecular target: T1, SIRT2; experiment: SIRT2 binding competition assay using Cy3-myristoyl-H4K16 peptide; conditions: concentrations as high as 100 μM
Experimental: Competition assays where Cy3-myristoyl-H4K16 peptide was displaced from SIRT2 by 1 were performed as previously described. Assays were performed in PBS with 1 mM DTT at 23°C in a quartz microcuvette (160 μl assay volume). Briefly, the fluorescence intensity of 50 nM Cy3-myristoyl-H4K16 peptide was measured in the presence of 2.5 μM SIRT2 and increasing amounts of 1 using excitation/emission wavelengths of 535 nm/560 nm. The final DMSO concentration in each measurement was 0.6%. As previously described, displacement of Cy3-myristoyl-H4K16 peptide from SIRT2 by a competitive ligand results in a reduction of its fluorescence.
The data from both competition assays show a reduction in probe fluorescence at increasing concentrations of competitor ligands. […] We determined and report absolute IC50 values from the curves which reflect ligand concentrations that reduce the fluorescence by 50% compared to control (no ligand) samples.

[11] = molecular target: T1, SIRT2; experiment: 1-aminoanthracene binding competition assay, SIRT2 alone
Experimental: Competition assays where 1-aminoanthracene was displaced from SIRT2 by 2, 4, 5, and 6 were performed as previously reported where we described its displacement from SIRT2 by 3. The assays were also cuvette-based and performed at 23°C in PBS with 1 mM DTT, and the final DMSO concentration was 0.6%. Briefly, the fluorescence intensity of 100 nM 1-aminoanthracene was measured in the presence of 4 μM SIRT2 and increasing amounts of ligand using excitation/emission wavelengths of 390 nm/520 nm. As previously described, displacement of 1-aminoanthracene from SIRT2 by a competitor results in a reduction of its fluorescence.
We determined and report absolute IC50 values from the curves which reflect ligand concentrations that reduce the fluorescence by 50% compared to control (no ligand) samples.

[12] = molecular target: SIRT2—decanoyl peptide complex; set-up: method as in PMID 32941003; conditions: cited from earlier work

Cc1cc(C)nc(SCC(=O)Nc2ncc(Cc3cccc4ccccc34)s2)n1 [SirReal2, reference compound]
level of acetylated alpha-tubulin (immunofluorescence) [1]: increased acetylated alpha-tubulin to similar levels as 1; also recorded: enhanced fluorescence | viability / toxicity in A549 cells (MTT) [2]: did not cause toxicity; also recorded: no effect | level of acetylated alpha-tubulin (immunofluorescence) [3]: no effect

Oc1c(F)cc(Br)cc1F [compound 12, 4-bromo-2,6-difluorophenol]
Deacetylase IC50 [4]: no effect | Demyristoylase IC50 [5]: no effect

CCCCCCCCCCCCCCCC(=O)OC[C@H](O)[C@H]1OC(=O)C(O)=C1O [ascorbyl palmitate]
IC50 [6]: 2 µM | Kd ([7]; read-out: published Kd for SIRT2): 3 to 5 µM | maximum reduction of HTRF FRET signal (displacement of FAM-myristoyl-H4K16 peptide) [8]: ~ 40% | IC50 [9]: 8 to 23 µM

O=C1CSc2nc3ccccc3n21 [compound 15, [1, 3]thiazolo[3,2-a]benzimidazole-3(2H)-one]
displacement of Cy3-myristoyl-H4K16 peptide from SIRT2 / interaction with SIRT2 [10]: too weak to measure a Kd; also recorded: did not efficiently displace | displacement of 1-aminoanthracene from SIRT2 ([11]; concentrations as high as 100 μM): did not efficiently displace | Deacetylase IC50 [4]: not effective; also recorded: no effect | IC50 [5]: 117 µM

Cc1ccc(C(C)C)c(O)c1 [compound 4, 2-isopropyl-5-methylphenol]
IC50 [11]: 128 µM | Kd [11]: 116 µM

Oc1cc(C(F)(F)F)ccc1F [compound 14, 2-fluoro-5-(trifluoromethyl)phenol]
Deacetylase IC50 [4]: no effect | Demyristoylase IC50 [5]: no effect

Nc1cccc2cc3ccccc3cc12 [1-aminoanthracene]
Kd [12]: 4 µM | Kd ([7]; read-out: Kd for SIRT2 alone): 37 µM | IC50 [9]: 21 µM

Cc1ccc(C(=O)Nc2ccc(S(=O)(=O)O)c3cc(S(=O)(=O)O)cc(S(=O)(=O)O)c23)cc1NC(=O)c1cccc(NC(=O)Nc2cccc(C(=O)Nc3cc(C(=O)Nc4ccc(S(=O)(=O)O)c5cc(S(=O)(=O)O)cc(S(=O)(=O)O)c45)ccc3C)c2)c1 [suramin]
IC50 [9]: 95 µM
